Consider 4 molecules from patent US9447156B2, “Methods and compositions for inhibiting neddylation of proteins” (St. Jude Children's Research Hospital, priority 2011, dated 2016).

Broadly, the Kd is the concentration at which binding is half-saturated.

The target of one assay is T1, hDcn4^P (Homo sapiens, UniProt Q92564).
T1 sequence (Q92564 102-292): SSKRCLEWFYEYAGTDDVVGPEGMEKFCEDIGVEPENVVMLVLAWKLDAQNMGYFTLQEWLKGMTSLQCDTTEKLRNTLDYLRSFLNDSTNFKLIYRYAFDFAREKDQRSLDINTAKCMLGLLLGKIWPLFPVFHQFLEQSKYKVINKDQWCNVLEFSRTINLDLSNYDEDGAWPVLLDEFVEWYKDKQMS
Put plainly: ITC binding of peptides to hDcn4^P. To be noted: Table 29, peptides with amidated carboxy-terminus. As to the method:
(§1) Protein samples were buffer matched by desalting over a NAP-5 column (GE Healthcare) into 50 mM Hepes, 125 mM NaCl, 1 mM BME, pH 7.0 (ITC buffer). Peptides were dissolved by weight to a final concentration of 10 mM in ITC buffer and diluted further in ITC buffer as required for the experiments. Measurements were performed using a MicroCal ITC200. hDcn1^P or yDcn1^P were placed into the sample cell at a final concentration of 400 μM at 18° C. The peptide ligands (4 mM) were constantly injected (1.5 μl). The interval time between each injection was 3 minutes and the duration of each injection was 3 seconds. For titrations involving hE1 and yE1, proteins were placed into the sample cell at a final concentration of 25 μM at 22° C. Peptide ligands (250 μM) were constantly injected (2.5 μl). The interval time between each injection was three minutes and the duration of each injection was 5 seconds. For hCul1^ctd-Rbx1:hDcn1^P binding, proteins were buffer matched by desalting over a NAP-5 column in 25 mM Tris, 0.1 M NaCl, 1 mM BME, pH 7.6. hCul1^ctd-Rbx1 was placed into the sample cell at a final concentration of 55 μM at 22° C. hDcn1^P (550 μM) was constantly injected (2.5 μl). The interval time between each injection was 3 minutes and the duration of each injection was 5 seconds. Obtained spectra were evaluated using Origin (V 7.0) to determine heats of binding and Kd values. […]

The next assay addresses T2, hDcn5^P (Homo sapiens, UniProt Q9BTE7).
T2 construct: human Dcn1 family members 1-5 (also called DCUND1-DCUND5)
T2 sequence (Q9BTE7 47-237): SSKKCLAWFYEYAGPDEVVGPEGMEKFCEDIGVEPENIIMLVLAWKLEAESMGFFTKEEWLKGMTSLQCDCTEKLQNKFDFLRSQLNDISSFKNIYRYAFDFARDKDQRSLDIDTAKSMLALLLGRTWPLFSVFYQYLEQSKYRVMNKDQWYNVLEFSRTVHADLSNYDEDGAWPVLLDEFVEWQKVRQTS
Nature of the assay: ITC binding of peptides to hDcn5^P. Particulars: Table 29, peptides with amidated carboxy-terminus. As to the method:
as §1

In the next assay the target is T3, hDcn2^P (Homo sapiens, UniProt Q6PH85).
T3 construct: human Dcn1 family members 1-5 (also called DCUND1-DCUND5)
T3 sequence (Q6PH85 62-259): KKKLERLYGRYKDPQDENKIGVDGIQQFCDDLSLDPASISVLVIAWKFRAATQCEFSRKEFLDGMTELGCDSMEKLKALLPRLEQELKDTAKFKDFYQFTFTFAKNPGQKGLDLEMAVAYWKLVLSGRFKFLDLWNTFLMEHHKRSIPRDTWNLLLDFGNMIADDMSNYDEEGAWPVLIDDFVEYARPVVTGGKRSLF
Put plainly: ITC binding of peptides to hDcn2^P. To be noted: Table 29, peptides with amidated carboxy-terminus. As to the method: (§2) Protein samples were buffer matched by desalting over a NAP-5 column (GE Healthcare) into 50 mM Hepes, 125 mM NaCl, 1 mM BME, pH 7.0 (ITC buffer). Peptides were dissolved by weight to a final concentration of 10 mM in ITC buffer and diluted further in ITC buffer as required for the experiments. Measurements were performed using a MicroCal ITC200. hDcn1^P or yDcn1^P were placed into the sample cell at a final concentration of 400 μM at 18° C. The peptide ligands (4 mM) were constantly injected (1.5 μl). The interval time between each injection was 3 minutes and the duration of each injection was 3 seconds. For titrations involving hE1 and yE1, proteins were placed into the sample cell at a final concentration of 25 μM at 22° C. Peptide ligands (250 μM) were constantly injected (2.5 μl). The interval time between each injection was three minutes and the duration of each injection was 5 seconds. For hCul1^ctd-Rbx1:hDcn1^P binding, proteins were buffer matched by desalting over a NAP-5 column in 25 mM Tris, 0.1 M NaCl, 1 mM BME, pH 7.6. hCul1^ctd-Rbx1 was placed into the sample cell at a final concentration of 55 μM at 22° C. hDcn1^P (550 μM) was constantly injected (2.5 μl). The interval time between each injection was 3 minutes and the duration of each injection was 5 seconds. Obtained spectra were evaluated using Origin (V 7.0) to determine heats of binding and Kd values.
(§3) The affinity of various peptides for hDcn1^P, hDcn2^P, hDcn3^P, hDcn4^P, and hDcn5^P was tested using isothermal titration calorimetry as described in Example 1 and is provided in Table 29.

The next assay addresses T4, hDcn1^P (Homo sapiens, UniProt Q96GG9).
T4 construct: hDcn1^P corresponds to residues 62 to the C-terminal residue 259 of hDcn1; GST (cleaved yes); made in house; host or cells: E. coli BL21(DE3)Gold
Put plainly: ITC binding of Ubc12/Ube2f peptides to hDcn1^P. Particulars: Table 29, peptides with amidated carboxy-terminus, read-out: Binding Kd for hDcn1^P. As to the method:
as §2, §3

For assay [1], the target named is hCul1^ctd-hRbx1. Nature of the assay: ITC hDcn1^P binding to hCul1^ctd-hRbx1. Particulars: human versus yeast Kd. As to the method:
as §2

The next assay addresses yCul1^C+-yRbx1. To be noted: yeast counterparts; read-out: Kd yCul1^C+-yRbx1:yDcn1^P; cited from earlier work.
Assay [2] deals with hCul1^ctd-hRbx1. Put plainly: Pulse-chase assay of [32P]~hNedd8 transfer from hUbc12 to hCul1-hRbx1 with or without hDcn1^P. The class given is biochemical, human. To be noted: FIG. 3. The procedure: Dcn1^P-mediated co-E3 activity was monitored using pulse-chase assays to exclusively monitor effects of acetylation on Nedd8 transfer to Cul1 without sensing earlier steps in the reaction. For the “pulse”, 10 μM of the indicated versions of yUbc12 were charged with [^32P]-yNedd8 (also referred to as [^32P]-Rub1) as described previously (Scott et al. (2010) Mol Cell 39(5):784-796), resulting in formation of a thiolester-linked yUbc12-[^32P]-yNedd8 intermediate. 10 μM of the indicated versions of hUbc12 were charged similarly with [^32P]-hNedd8, for 15 minutes at room temperature using 0.1 μM hE1, 15 μM [^32P]-hNedd8, in 50 mM Hepes, 100 mM NaCl, 1.25 mM ATP, 2.5 mM MgCl2, pH 7.5. Formation of a yUbc12-[^32P]-yNedd8 or hUbc12-[^32P]-hNedd8 intermediate was quenched with 50 mM EDTA on ice for 5 minutes. Other than in FIG. 3, where additional details are provided, chase reactions with hUbc12 and yUbc12 variants involved dilution of the Ubc12-[^32P]-Nedd8 thioester conjugate to 40 nM in 50 mM BisTris, 100 mM NaCl, 50 mM EDTA, 0.5 mg/ml BSA, pH 6.7. Chase reactions were initiated at 0° C. by the addition of hCul1^ctd-hRbx1, yCul1^C+-yRbx1, hDcn1^P-hCul1^ctd-hRbx1, or yDcn1^P-yCul1^C+-yRbx1 at a final concentration of 125 nM. Aliquots were removed at the indicated times and quenched with 2×SDS-PAGE sample buffer. […]

T4 sequence (Q96GG9 62-259): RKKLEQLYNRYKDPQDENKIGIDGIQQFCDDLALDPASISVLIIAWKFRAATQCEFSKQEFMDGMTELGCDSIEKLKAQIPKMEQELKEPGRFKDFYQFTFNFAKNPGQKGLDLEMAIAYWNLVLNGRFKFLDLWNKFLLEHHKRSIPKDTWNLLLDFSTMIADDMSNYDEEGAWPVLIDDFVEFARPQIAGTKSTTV
Sequence of yCul1^C+-yRbx1 (Q12018 427-815 limits assumed): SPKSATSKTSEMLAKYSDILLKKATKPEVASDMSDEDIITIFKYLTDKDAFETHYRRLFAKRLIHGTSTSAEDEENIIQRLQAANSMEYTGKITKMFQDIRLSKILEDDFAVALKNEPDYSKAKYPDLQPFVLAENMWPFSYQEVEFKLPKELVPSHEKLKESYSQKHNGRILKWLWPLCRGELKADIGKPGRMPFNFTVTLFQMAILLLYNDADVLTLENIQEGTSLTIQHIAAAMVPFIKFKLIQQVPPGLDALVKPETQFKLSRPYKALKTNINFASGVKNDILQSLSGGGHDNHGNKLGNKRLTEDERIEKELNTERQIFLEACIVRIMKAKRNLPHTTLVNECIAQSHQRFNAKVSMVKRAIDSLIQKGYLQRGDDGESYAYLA
Sequence of yCul1^C+-yRbx1 (Q08273 32-121 limits assumed, further chain): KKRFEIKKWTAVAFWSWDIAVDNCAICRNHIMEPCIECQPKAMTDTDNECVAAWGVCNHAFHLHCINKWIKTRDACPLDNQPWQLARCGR

With “Ac-MLTLASKLKRDDGLKGSRTAATASD-NH2 [hUbe2f^Ac1−25]”, the Kd is more than 40 µM on hDcn4^P, more than 30 µM on hDcn5^P, more than 400 µM at hDcn2^P and more than 500 µM at hDcn1^P.
Turning to “hDcn1^P: residues 62 to 259 of hDcn1 (SCCRO, DCUN1D1), the potentiating neddylation domain”, on hCul1^ctd-hRbx1 [1], the “Kd of human proteins relative to yeast counterparts (fold worse)” value is “approximately 30 fold”.

B1: yDcn1^P: PONY domain of S. cerevisiae Dcn1 (protein)
chain: VYPKELTQVFEHYINNNLFDIDSLVKFIEELGYNLEDLATLCLAHLLGYKKLEEPLKREDFLSTWFMQGCSTISDMQECIKTLDVKLHEDLQYFTQIYNYAFNLILDPNRKDIDTDEGIQYWKLFFQPEYPVRMEPDLLEAWFRFLRDEGKTTISKDTWRMLLLFFKRYPTIQKIISDYDETAAWPFIIDEFYECLQDQQ
Consider B1, for which the Kd at yCul1^C+-yRbx1 was 28 nM.

B2: CAND1: protein inhibitor of Cul1 neddylation, expressed in E. coli (protein, UniProt Q86VP6 2-1230, looked up)
Cullin-associated …: ASASYHISNLLEKMTSSDKDFRFMATNDLMTELQKDSIKLDDDSERKVVKMILKLLEDKNGEVQNLAVKCLGPLVSKVKEYQVETIVDTLCTNMLSDKEQLRDISSIGLKTVIGELPPASSGSALAANVCKKITGRLTSAIAKQEDVSVQLEALDIMADMLSRQGGLLVNFHPSILTCLLPQLTSPRLAVRKRTIIALGHLVMSCGNIVFVDLIEHLLSELSKNDSMSTTRTYIQCIAAISRQAGHRIGEYLEKIIPLVVKFCNVDDDELREYCIQAFESFVRRCPKEVYPHVSTIINICLKYLTYDPNYNYDDEDEDENAMDADGGDDDDQGSDDEYSDDDDMSWKVRRAAAKCLDAVVSTRHEMLPEFYKTVSPALISRFKEREENVKADVFHAYLSLLKQTRPVQSWLCDPDAMEQGETPLTMLQSQVPNIVKALHKQMKEKSVKTRQCCFNMLTELVNVLPGALTQHIPVLVPGIIFSLNDKSSSSNLKIDALSCLYVILCNHSPQVFHPHVQALVPPVVACVGDPFYKITSEALLVTQQLVKVIRPLDQPSSFDATPYIKDLFTCTIKRLKAADIDQEVKERAISCMGQIICNLGDNLGSDLPNTLQIFLERLKNEITRLTTVKALTLIAGSPLKIDLRPVLGEGVPILASFLRKNQRALKLGTLSALDILIKNYSDSLTAAMIDAVLDELPPLISESDMHVSQMAISFLTTLAKVYPSSLSKISGSILNELIGLVRSPLLQGGALSAMLDFFQALVVTGTNNLGYMDLLRMLTGPVYSQSTALTHKQSYYSIAKCVAALTRACPKEGPAVVGQFIQDVKNSRSTDSIRLLALLSLGEVGHHIDLSGQLELKSVILEAFSSPSEEVKSAASYALGSISVGNLPEYLPFVLQEITSQPKRQYLLLHSLKEIISSASVVGLKPYVENIWALLLKHCECAEEGTRNVVAECLGKLTLIDPETLLPRLKGYLISGSSYARSSVVTAVKFTISDHPQPIDPLLKNCIGDFLKTLEDPDLNVRRVALVTFNSAAHNKPSLIRDLLDTVLPHLYNETKVRKELIREVEMGPFKHTVDDGLDIRKAAFECMYTLLDSCLDRLDIFEFLNHVEDGLKDHYDIKMLTFLMLVRLSTLCPSAVLQRLDRLVEPLRATCTTKVKANSVKQEFEKQDELKRSAMRAVAALLTIPEAEKSPLMSEFQSQISSNPELAAIFESIQKDSSSTNLESMDTS
On to B2, for which the “Cul1 neddylation in the presence of Dcn1^P and Ubc12 N-terminal acetylation” value with hCul1^ctd-hRbx1 [2] was “blocked”.
